In US9085576B2 (AMGEN INC., priority 2013, dated 2015):

Tests used:
BACE = BACE (Homo sapiens (Human), UniProt P56817); assay: In vitro BACE cell-based assay (Aβ40 in conditioned medium, sandwich ELISA)
Cathepsin D (Cat D) = Cathepsin D (Cat D) (Homo sapiens (Human), UniProt P07339); assay: In vitro enzymatic Cathepsin D (Cat D) FRET assay; format: biochemical; settings: read-out: CatD IC50
Abeta 40 = assay: In vivo inhibition of beta-secretase: Abeta 40 reduction in CSF and brain of the rat; settings: 10 mpk, after 4 hrs; for % reduction of rat CSF levels at 10 pmk: Abeta 40 in rat CSF; for % reduction of rat brain levels at 10 mpk: Abeta 40 in rat brain
[1] = molecular target: Beta Secretase enzyme (BACE) (Homo sapiens (Human), UniProt P56817); assay: In vitro enzymatic BACE FRET assay; format: biochemical; settings: read-out: BACE1 Enzyme assay IC50
Sequence of Beta Secretase enzyme (BACE) (P56817 46-501): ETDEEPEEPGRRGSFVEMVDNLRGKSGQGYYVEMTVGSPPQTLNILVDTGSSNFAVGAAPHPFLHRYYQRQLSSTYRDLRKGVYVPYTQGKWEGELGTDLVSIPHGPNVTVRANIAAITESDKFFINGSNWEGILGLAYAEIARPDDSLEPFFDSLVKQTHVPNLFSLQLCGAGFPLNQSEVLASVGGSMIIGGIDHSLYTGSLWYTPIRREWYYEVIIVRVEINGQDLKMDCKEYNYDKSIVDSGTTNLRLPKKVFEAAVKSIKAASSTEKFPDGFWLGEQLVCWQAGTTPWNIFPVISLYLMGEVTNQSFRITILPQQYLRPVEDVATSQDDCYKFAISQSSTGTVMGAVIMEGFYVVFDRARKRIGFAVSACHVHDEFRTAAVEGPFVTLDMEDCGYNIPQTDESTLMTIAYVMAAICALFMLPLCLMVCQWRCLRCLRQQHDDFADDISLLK

BACE1 [2] = molecular target: BACE1 (Homo sapiens (Human), UniProt P56817); settings: cited from earlier work
Sequence of BACE1 (Homo sapiens (Human), UniProt P56817) (P56817 46-501): as above

BACE1 [3] = settings: animals, orally available; cited from earlier work
[4] = system: pigment epithelium of the rat's eye; settings: higher compound dose given for three months; cited from earlier work

Sequence of Cathepsin D (Cat D) (P07339 65-412, species assumed): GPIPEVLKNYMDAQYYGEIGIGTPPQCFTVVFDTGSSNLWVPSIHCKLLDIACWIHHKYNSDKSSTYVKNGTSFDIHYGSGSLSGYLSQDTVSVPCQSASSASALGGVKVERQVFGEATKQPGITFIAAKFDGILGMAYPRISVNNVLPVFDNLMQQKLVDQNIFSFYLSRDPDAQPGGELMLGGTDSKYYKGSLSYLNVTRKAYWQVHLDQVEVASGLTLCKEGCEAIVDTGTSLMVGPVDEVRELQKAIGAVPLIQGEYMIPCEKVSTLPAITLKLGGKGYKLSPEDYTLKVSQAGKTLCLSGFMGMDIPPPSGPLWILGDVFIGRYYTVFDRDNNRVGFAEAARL
Sequence of BACE (P56817 46-501, species assumed): as the sequence (P56817 46-501) above

| IC50 (BACE) [µM] | IC50 (Cathepsin D (Cat D)) [µM] | IC50 [1] [µM] | Compound | % reduction of rat CSF levels at 10 pmk (Abeta 40) [%] | % reduction of rat brain levels at 10 mpk (Abeta 40) [%] | Aβ reductions in lumbar CSF (BACE1 [2]; healthy volunteers, oral dosing of 30 or 90 mg) | safety and tolerability (BACE1 [2]; healthy volunteers) | Aβ-lowering effects (BACE1 [3]) | eye assessments (BACE1 [2]; people of the terminated Ph I dosing trial) | eye toxicity finding [4] |
| --- | --- | --- | --- | --- | --- | --- | --- | --- | --- | --- |
| 0.0179 | 442 | 0.0377 | NC1=N[C@@](c2cc(NC(=O)c3ccc(OC(F)F)cn3)ccc2F)(C(F)F)[C@H]2C[C@H]2O1 [Example 312, N-(3-((1R,5S,6R)-3-amino-5-(difluoromethyl)-2-oxa-4-azabicyclo[4.1.0]hept-3-en-5-yl)-4-fluorophenyl)-5-(difluoromethoxy) picolinamide] | 30 | −1 |  |  |  |  |  |
| 0.0069 | 1270 | 0.0352 | N#Cc1cnc(C(=O)Nc2ccc(F)c([C@@]3(C(F)F)N=C(N)O[C@@H]4C[C@@H]43)c2)c(F)c1 [Example 388, N-(3-((1R,5S,6R)-3-amino-5-(difluoromethyl)-2-oxa-4-azabicyclo[4.1.0]hept-3-en-5-yl)-4-fluorophenyl)-5-cyano-3-fluoropicolinamide] | 21 | 4 |  |  |  |  |  |
| 0.0175 | 1350 | 0.0116 | COCc1cc(C#N)cnc1C(=O)Nc1ccc(F)c([C@@]2(C(F)F)N=C(N)O[C@@H]3C[C@@H]32)c1 [Example 391, N-(3-((1R,5S,6R)-3-amino-5-(difluoromethyl)-2-oxa-4-azabicyclo[4.1.0]hept-3-en-5-yl)-4-fluorophenyl)-5-cyano-3-(methoxymethyl)picolinamide] | 54 | 24 |  |  |  |  |  |
| 0.0551 | 747 | 0.043 | NC1=N[C@@](c2cc(NC(=O)c3cnc(OCC4CC4)cn3)ccc2F)(C(F)F)[C@H]2C[C@H]2O1 [Example 415, N-(3-((1R,5S,6R)-3-amino-5-(difluoromethyl)-2-oxa-4-azabicyclo[4.1.0]hept-3-en-5-yl)-4-fluorophenyl)-5-(cyclopropylmethoxy)pyrazine-2-carboxamide] | 27 | 14 |  |  |  |  |  |
|  |  |  | C[C@@]1(c2cc(-c3cncnc3)c(F)cc2F)CCSC(N)=N1 [LY2811376, (S)-4-(2,4-difluoro-5-pyrimidin-5-yl-phenyl)-4-methyl-5,6-dihydro-4H-[1,3]thiazin-2-ylamine] |  |  | Prominent and long-lasting Aβ reductions | safe and well tolerated | profound Aβ-lowering effects |  |  |
|  |  |  | C[C@@]1(c2cc(-c3cncnc3)c(F)cc2F)CCSC(N)=N1 [LY 2811376] |  |  |  |  |  | did not show any abnormalities | damaged the pigment epithelium of the rat's eye |

| Compound | IC50 (BACE) [µM] | IC50 (Cathepsin D (Cat D)) [µM] | IC50 [1] [µM] | % reduction of rat CSF levels at 10 pmk (Abeta 40) [%] | % reduction of rat brain levels at 10 mpk (Abeta 40) [%] | Aβ reductions in lumbar CSF (BACE1 [2]; healthy volunteers, oral dosing of 30 or 90 mg) | safety and tolerability (BACE1 [2]; healthy volunteers) | Aβ-lowering effects (BACE1 [3]) | eye assessments (BACE1 [2]; people of the terminated Ph I dosing trial) | eye toxicity finding [4] |
| --- | --- | --- | --- | --- | --- | --- | --- | --- | --- | --- |
| NC1=N[C@@](c2cc(NC(=O)c3ncc(Cl)cc3CO)ccc2F)(C(F)F)[C@H]2C[C@H]2O1 [Example 419, N-(3-((1R,5S,6R)-3-amino-5-(difluoromethyl)-2-oxa-4-azabicyclo-[4.1.0]hept-3-en-5-yl)-4-fluorophenyl)-5-chloro-3-(hydroxymethyl)picolinamide] | 0.0293 | 276 | 0.0332 | 57 | 42 |  |  |  |  |  |
